Source: US20260262652A1, “INSECT DAMAGE INHIBITOR, METHOD FOR USING RESIN COMPOSITION, CULTIVATION METHOD, POTTING SOIL, AND METHOD FOR IMPROVING SOIL” (ARAKAWA CHEMICAL INDUSTRIES, LTD., priority 2023, published 2026)

System: two-spotted spider mites
Test: Test 2: spraying onto two-spotted spider mites on kidney bean seedlings, count of mites (pest reproduction inhibition effect)
Format: in vivo, Tetranychus urticae
Conditions: ten female adults inoculated on kidney bean seedlings, (A1) as 1% solution, average of pots
Protocol: Ten female adult two-spotted spider mites were inoculated onto ‘Naga-uzura’ kidney bean seedlings (14 days after germination) grown in plastic pots, and an ethanol solution of the component (A1) was further diluted 10-fold with deionized water, and the resulting 1% solution was sprayed onto the spider mites. Two additional pots with similarly grown kidney bean seedlings were prepared. On the 2nd, 4th, 9th, 13th, and 17th days after spraying, the total number of two-spotted spider mites on the adaxial surface, abaxial surface, and true leaves of the kidney beans in each pot was counted, and the average value was calculated. The test was conducted in the same manner for the component (A3)′.

CCO [(A3)′, ethanol] was tested, and the “Number of two-spotted spider mites (Average) Day 2” value (Day 2 after spraying) was 9, the “Number of two-spotted spider mites (Average) Day 4” value (Day 4 after spraying) was 8 and the “Number of two-spotted spider mites (Average) Day 9” value (Day 9 after spraying) was 287. For the same compound, the “Number of two-spotted spider mites (Average) Day 13” value (Day 13 after spraying) was 564 and the “Number of two-spotted spider mites (Average) Day 17” value (Day 17 after spraying) was 924.
